Assay results reported in paper PMC8154566, “Scaffold-Hopping Strategy on a Series of Proteasome Inhibitors Led to a Preclinical Candidate for the Treatment of Visceral Leishmaniasis” (Journal of Medicinal Chemistry, 2021).
In brackets after ≈: the same amount, converted by molar mass. Like-named read-outs stand apart in the source and are kept apart here.

Assays:
[1] = test system: L. donovani amastigotes; experiment: INMAC assay: intramacrophage L. donovani in differentiated THP-1 cells; format: cell-based, Leishmania donovani; conditions: for loss of potency: INMAC, relative to compound 4; for IC50 / EC50: Leishmania donovani; for IC50: THP-1, read-out: LdInMac pIC50 (converted); for EC50: THP-1
Method: (§1) Intramacrophage L. donovani Assay. This assay was conducted as previously described, except for […]

[2] = test system: THP-1 cells; experiment: THP-1 host cell read-out of the INMAC assay; format: cell-based; conditions: Homo sapiens
Method: as §1

[3] = Kinetic aqueous solubility by CLND; format: physicochemical
Method: We had successfully used these criteria in the hit to lead stage to identify compounds for in vivo proof-of-concept studies in another program, which subsequently led to the identification of preclinical candidate DDD853651/GSK3186899 active against CRK12.[7] […] A pharmacokinetic (PK) study was thus performed, dosed at 10 mg/kg po and 3 mg/kg iv. […] With the limited knowledge of the PK/PD drivers for the treatment of VL, we considered this to be a suitable profile for the progression of 4 into a previously reported mouse efficacy model of VL,[6],[7],[17],[18] where it was dosed twice daily at 50 mg/kg ip in order to further maximize exposure and give the best chance of achieving proof-of-concept.
(§2) Intramacrophage L. donovani Assay. This assay was conducted as previously described, except for compound exposure time, which was 96 h instead of 72 h.4
(§3) Intrinsic Clearance. This assay was conducted as previously described.5 Aqueous Solubility. This assay was conducted as previously described.6
(§4) FaSSIF Solublity. This assay was conducted as previously described.5,7
(§5) In vivo Mouse Efficacy Studies. In vivo studies were carried out as previously described, with minor modifications.7 Briefly: Control drug used was Miltefosine (30 mg/kg orally, twice daily for 5 days), vehicle used was 10% (v/v) dimethyl sulfoxide (DMSO), 40% polyethylene glycol 400, and 50% deionized water (10 Ml/kg orally, twice daily for 5 days) and mice were treated with test compound intraperitoneally (50 mg/kg twice daily for 5 days). 5
(§6) All regulated procedures on living animals were carried out under the authority of a project license issued by the Home Office under the Animals (Scientific Procedures) Act 1986, as amended in 2012 (and in compliance with EU Directive EU/2010/63). Infected animals had access to food and water ad libitum and were housed under a 12 hour light/dark photoperiod. Animals used in these experiments were female NMRI and Balb/c mice (Harlan, UK).
(§7) Test compound DDD01008714 was dosed orally (P.O.) at 10 mg free base/kg (dose volume 10 mL/kg; dose vehicle: 10% (vol/vol) dimethyl sulfoxide (DMSO), 40% polyethylene glycol 400 (PEG400) and 50% deionized water) to female NMRI mice (n = 3) or intravenously (I.V.) at 3 mg free base/kg (dose volume 5 mL/kg; dose vehicle: 10% (vol/vol) dimethyl sulfoxide (DMSO) and 90% Saline) to female Balb/c mice (n = 3). Blood samples (10 μL) where taken from the tail vein of […]

[4] = FaSSIF (fasted state simulated intestinal fluid) solubility; format: physicochemical
Method: as §2, §3, §4, §5, §6, §7

[5] = Mouse liver microsomal intrinsic clearance; format: in vitro ADME; conditions: for Mouse CLi: mouse liver microsomes; for Cli (mouse, ml/min/g): supplementary csv
Method: as §2, §3, §4, §5, §6, §7

[6] = Table 2, at least three replicates, SD ≤0.4, read-out: INMAC (pEC50) (converted)
[7] = THP-1, Table 2, read-out: THP-1 (pEC50) (converted)
[8] = THP-1, supplementary csv, read-out: THP1 pIC50 (converted)
[9] = Table 2, kinetic, CLND, read-out: Aq. solubility
[10] = supplementary csv, read-out: Aqueous Solubility
[11] = Table 5, at least three replicates, SD ≤0.4, read-out: INMAC pEC50 (converted)
[12] = THP-1, Table 5, read-out: THP-1 pEC50 (converted)
[13] = Table 5, kinetic, CLND, read-out: Aq. solubility
[14] = THP-1, read-out: THP1 pIC50 (converted)

O=C(Nc1cccc(-c2cn3cc(N4CCOCC4)cnc3n2)n1)N1CCCC1 [Compound 9, N-(6-(6-Morpholinoimidazo[1,2-a]pyrimidin-2-yl)pyridin-2-yl)pyrrolidine-1-carboxamide]
loss of potency [1]: > 10 fold | IC50 [1]: > 50.1 µM | EC50 [1, 6]: > 50.1 µM | EC50 [2, 7]: > 50.1 µM | IC50 [2, 8]: > 50.1 µM | solubility [3, 9]: ≥ 476 µM | solubility [3, 10]: ≥ 480 µM | solubility at 4 h ([4]; pH 6.5, Table 2): 80 µM (≈ 31.5 µg/mL) | solubility ([4]; supplementary csv): 81 µM (≈ 31.9 µg/mL) | Mouse CLi ([5]; Table 2): <0.5 mL/min/g | Cli (mouse, ml/min/g) [5]: <0.5 mL/min/g

O=C(Nc1cc(-c2cn3cc(N4CCOCC4)cnc3n2)ncn1)N1CCCC1 [Compound 10, N-(6-(6-Morpholinoimidazo[1,2-a]pyrimidin-2-yl)pyrimidin-4-yl)pyrrolidine-1-carboxamide]
loss of potency [1]: > 10 fold | IC50 [1]: > 50.1 µM | EC50 [1, 6]: > 50.1 µM | EC50 [2, 7]: > 50.1 µM | IC50 [2, 8]: > 50.1 µM | solubility [3, 9]: ≥ 435 µM | solubility [3, 10]: ≥ 440 µM | solubility ([4]; Table 2): > 100 µM | solubility at 4 h ([4]; pH 6.5, Table 2): 2050 µM (≈ 807 µg/mL) | solubility ([4]; supplementary csv): > 1000 µM | Mouse CLi ([5]; Table 2): <0.5 mL/min/g | Cli (mouse, ml/min/g) [5]: <0.5 mL/min/g

O=C(Nc1cncc(-c2cn3cc(N4CCOCC4)cnc3n2)n1)N1CCCC1 [Compound 11, N-(6-(6-Morpholinoimidazo[1,2-a]pyrimidin-2-yl)pyrazin-2-yl)pyrrolidine-1-carboxamide]
loss of potency [1]: > 10 fold | IC50 [1]: > 50.1 µM | EC50 [1, 6]: > 50.1 µM | EC50 [2, 7]: > 50.1 µM | IC50 [2, 8]: > 50.1 µM | solubility [3, 9]: ≥ 396 µM | solubility [3, 10]: ≥ 400 µM | solubility ([4]; Table 2): > 100 µM | solubility at 4 h ([4]; pH 6.5, Table 2): 213 µM (≈ 84 µg/mL) | solubility ([4]; supplementary csv): 210 µM (≈ 82.8 µg/mL) | Mouse CLi ([5]; Table 2): <0.5 mL/min/g | Cli (mouse, ml/min/g) [5]: <0.5 mL/min/g

O=C(Nc1nccc(-c2cn3cc(N4CCOCC4)cnc3n2)n1)N1CCCC1 [Compound 12, N-(4-(6-Morpholinoimidazo[1,2-a]pyrimidin-2-yl)pyrimidin-2-yl)pyrrolidine-1-carboxamide]
loss of potency [1]: > 10 fold | IC50 [1]: > 50.1 µM | EC50 [1, 6]: > 50.1 µM | EC50 [2, 7]: > 50.1 µM | IC50 [2, 8]: > 50.1 µM | solubility [3, 9]: ≥ 470 µM | solubility ([4]; supplementary csv): > 1000 µM | Mouse CLi ([5]; Table 2): <0.5 mL/min/g | Cli (mouse, ml/min/g) [5]: <0.5 mL/min/g

O=C(Nc1cnnc(-c2cn3cc(N4CCOCC4)cnc3n2)c1)N1CCCC1 [Compound 13, N-(6-(6-Morpholinoimidazo[1,2-a]pyrimidin-2-yl)pyridazin-4-yl)pyrrolidine-1-carboxamide]
loss of potency [1]: > 10 fold | IC50 [1]: > 50.1 µM | EC50 [1, 6]: > 50.1 µM | EC50 [2, 7]: > 50.1 µM | IC50 [2, 8]: > 50.1 µM | solubility [3, 9]: 355 µM (≈ 140 µg/mL) | solubility [3, 10]: 360 µM (≈ 142 µg/mL) | solubility ([4]; Table 2): > 100 µM | solubility at 4 h ([4]; pH 6.5, Table 2): 286 µM (≈ 113 µg/mL) | solubility ([4]; supplementary csv): 290 µM (≈ 114 µg/mL) | Mouse CLi ([5]; Table 2): <0.5 mL/min/g | Cli (mouse, ml/min/g) [5]: <0.5 mL/min/g

O=C(Nc1ccc(F)c(-c2cn3ncc(N4CCOCC4)cc3n2)c1)N1CCCC1 [Compound 15, N-[4-Fluoro-3-(7-morpholinoimidazo[1,2-b]pyridazin-2-yl)phenyl]pyrrolidine-1-carboxamide]
IC50 [1]: > 50.1 µM | EC50 [1, 11]: > 50.1 µM | INMAC pEC50 ([1]; Table 5, at least three replicates, SD ≤0.4): inactive | EC50 [2, 12]: > 50.1 µM | IC50 [2, 8]: > 50.1 µM | solubility [3, 13]: 58 µM (≈ 23.8 µg/mL) | solubility at 4 h ([4]; pH 6.5, Table 5): 22 µM (≈ 9.03 µg/mL) | Mouse CLi ([5]; Table 5): 2.0 mL/min/g | Cli (mouse, ml/min/g) [5]: 2 mL/min/g

O=C(Nc1ccc(F)c(-c2cc3cc(N4CCOCC4)cnc3o2)c1)N1CCCC1 [Compound 20, N-(4-Fluoro-3-(5-morpholinofuro[2,3-b]pyridin-2-yl)phenyl)pyrrolidine-1-carboxamide]
EC50 [1, 11]: 0.0501 µM | EC50 [2, 12]: > 50.1 µM | IC50 [2, 8]: > 50.1 µM | solubility [3, 13]: 25 µM (≈ 10.3 µg/mL) | solubility at 4 h ([4]; pH 6.5, Table 5): 7 µM (≈ 2.87 µg/mL) | Mouse CLi ([5]; Table 5): 4.0 mL/min/g | Cli (mouse, ml/min/g) [5]: 4 mL/min/g

O=C(Nc1ccc(F)c(-c2cc3nc(N4CCOCC4)cnc3o2)c1)N1CCCC1 [Compound 21, N-[4-Fluoro-3-(2-morpholinofuro[2,3-b]pyrazin-6-yl)phenyl]pyrrolidine-1-carboxamide]
EC50 [1, 11]: 0.158 µM | EC50 [2, 12]: > 50.1 µM | IC50 [2, 8]: > 50.1 µM | solubility [3, 13]: 70 µM (≈ 28.8 µg/mL) | solubility at 4 h ([4]; pH 6.5, Table 5): 15 µM (≈ 6.17 µg/mL) | Mouse CLi ([5]; Table 5): 2.8 mL/min/g | Cli (mouse, ml/min/g) [5]: 2.8 mL/min/g

O=C(Nc1ccc(F)c(-c2cn3nc(N4CCOCC4)cnc3n2)c1)N1CCCC1 [Compound 23, N-(4-Fluoro-3-(2-morpholinoimidazo[1,2-b][1,2,4]triazin-6-yl)phenyl)pyrrolidine-1-carboxamide]
EC50 [1, 11]: 0.398 µM | IC50 [2, 14]: > 50.1 µM | EC50 [2, 12]: > 50.1 µM | solubility [3, 13]: 126 µM (≈ 51.8 µg/mL) | solubility [3, 10]: 130 µM (≈ 53.5 µg/mL) | solubility ([4]; supplementary csv): 140 µM (≈ 57.6 µg/mL) | Mouse CLi ([5]; Table 5): 0.9 mL/min/g | Cli (mouse, ml/min/g) [5]: 0.9 mL/min/g

O=C(Nc1ccc(F)c(-c2nc3ncc(N4CCOCC4)cn3n2)c1)N1CCCC1 [Compound 25, N-(4-Fluoro-3-(6-morpholino-[1,2,4]triazolo[1,5-a]pyrimidin-2-yl)phenyl)pyrrolidine-1-carboxamide]
EC50 [1, 11]: 0.631 µM | IC50 [2, 14]: > 50.1 µM | EC50 [2, 12]: > 50.1 µM | solubility [3, 13]: 354 µM (≈ 146 µg/mL) | solubility [3, 10]: 400 µM (≈ 165 µg/mL) | solubility at 4 h ([4]; pH 6.5, Table 5): 74 µM (≈ 30.4 µg/mL) | solubility ([4]; supplementary csv): 73 µM (≈ 30 µg/mL) | Mouse CLi ([5]; Table 5): <0.5 mL/min/g | Cli (mouse, ml/min/g) [5]: 0.5 mL/min/g

O=C(Nc1ccc(F)c(-c2cc3cc(N4CCOCC4)cnn3n2)c1)N1CCCC1 [Compound 26, N-(4-Fluoro-3-(5-morpholinopyrazolo[1,5-b]pyridazin-2-yl)phenyl)pyrrolidine-1-carboxamide]
EC50 [1, 11]: 0.158 µM | EC50 [2, 12]: > 50.1 µM | IC50 [2, 8]: > 50.1 µM | solubility [3, 13]: 51 µM (≈ 20.9 µg/mL) | solubility at 4 h ([4]; pH 6.5, Table 5): 12 µM (≈ 4.93 µg/mL) | Mouse CLi ([5]; Table 5): 1.7 mL/min/g | Cli (mouse, ml/min/g) [5]: 1.7 mL/min/g

O=C(Nc1ccc(F)c(-c2ccn3c(-c4ccccc4)cnc3n2)c1)N1CCCC1 [Compound 28, N-(4-Fluoro-3-(3-phenylimidazo[1,2-a]pyrimidin-7-yl)phenyl)pyrrolidine-1-carboxamide]
EC50 ([1]; Table 6, at least three replicates, SD ≤0.4, read-out: INMAC pEC50 (converted)): 0.251 µM | EC50 ([2]; THP-1, Table 6, read-out: THP-1 pEC50 (converted)): 50.1 µM | IC50 [2, 8]: 50.1 µM | solubility ([3]; Table 6, kinetic, CLND, read-out: Aq. solubility): 39 µM (≈ 15.7 µg/mL) | solubility at 4 h ([4]; pH 6.5, Table 6): 7 µM (≈ 2.81 µg/mL) | solubility ([4]; supplementary csv): 8 µM (≈ 3.21 µg/mL) | Mouse CLi ([5]; Table 6): 2.5 mL/min/g | Cli (mouse, ml/min/g) [5]: 2.5 mL/min/g
